Format in all cases: cell-based
One assay addresses human GcgR (Homo sapiens, UniProt P47871). Kind of assay: Functional cAMP activity in the presence of 1% HSA. The following applies: read-out: cAMP Rel EC50, hGcgR.
Assay [1] addresses T1, hGLP-1R (Homo sapiens, UniProt P43220). Kind of assay: Functional cAMP activation in the presence of 0.1% casein (no HSA). The settings on record: read-out: Relative cAMP EC50, hGLP-1R.
The target of assay [2] is T2, hGIPR (Homo sapiens, UniProt P48546).
T2 sequence (P48546 22-466): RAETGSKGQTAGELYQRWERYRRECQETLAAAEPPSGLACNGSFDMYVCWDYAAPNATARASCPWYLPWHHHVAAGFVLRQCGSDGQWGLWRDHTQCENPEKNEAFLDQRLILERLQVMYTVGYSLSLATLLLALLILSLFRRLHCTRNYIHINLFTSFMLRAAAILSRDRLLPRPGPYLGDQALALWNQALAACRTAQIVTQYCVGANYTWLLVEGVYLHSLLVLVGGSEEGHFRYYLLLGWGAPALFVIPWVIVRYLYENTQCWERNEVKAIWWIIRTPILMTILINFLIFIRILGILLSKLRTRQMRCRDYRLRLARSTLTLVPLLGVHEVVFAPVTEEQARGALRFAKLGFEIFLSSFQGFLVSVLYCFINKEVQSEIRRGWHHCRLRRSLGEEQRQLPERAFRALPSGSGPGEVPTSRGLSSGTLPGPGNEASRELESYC
The description is as above. The settings on record: read-out: Relative cAMP EC50, hGIPR.

Assay [3] concerns the target T2, hGIPR. Nature of the assay: Functional cAMP activity in the presence of 1% HSA. The settings on record: read-out: cAMP Rel EC50, hGIPR.
Assay [4] deals with T1, hGLP-1R. Nature of the assay: Functional cAMP activity in the presence of 1% HSA. The settings on record: read-out: cAMP Rel EC50, hGLP-1R.
In a further assay the target is hGcgR (Homo sapiens, UniProt P47871). Nature of the assay: Functional cAMP activation in the presence of 0.1% casein (no HSA). The settings on record: read-out: Relative cAMP EC50, hGcgR.
Chain of hGcgR (P47871 26-477): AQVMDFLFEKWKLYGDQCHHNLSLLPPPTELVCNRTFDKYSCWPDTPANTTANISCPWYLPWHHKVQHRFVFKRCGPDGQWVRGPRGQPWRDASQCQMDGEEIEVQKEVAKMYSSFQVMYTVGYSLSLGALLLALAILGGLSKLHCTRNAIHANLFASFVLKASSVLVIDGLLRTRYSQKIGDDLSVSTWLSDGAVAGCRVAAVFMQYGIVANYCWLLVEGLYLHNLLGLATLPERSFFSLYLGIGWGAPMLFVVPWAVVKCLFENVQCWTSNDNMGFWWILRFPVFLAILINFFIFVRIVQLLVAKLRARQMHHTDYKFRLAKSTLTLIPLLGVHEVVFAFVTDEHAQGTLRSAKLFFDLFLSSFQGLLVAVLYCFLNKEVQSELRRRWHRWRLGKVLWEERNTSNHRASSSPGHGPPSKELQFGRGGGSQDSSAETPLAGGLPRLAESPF
Setting [5] is: in the presence of 0.1% casein (no HSA), geometric mean.

Like-named read-outs stand apart in the source and are kept apart here. Starred links: 1 amine or outer side, 2 acyl side, 3 side chain; linkers in the order of their positions; H or OH if unused. Non-standard residues stand in square brackets, D forms with d. Residues, ends and D or L forms follow the SMILES beside them. Groups on a side chain read outwards from the residue. No end group written: not given here. *: point of attachment. C20 diacid = O=C(O)CCCCCCCCCCCCCCCCCCC(=O)*; C18 diacid = O=C(O)CCCCCCCCCCCCCCCCC(=O)*; αMePhe(2-F) = C[C@](N)(Cc1ccccc1F)C(=O)O; γGlu = O=C(O)[C@H](CCC(=O)[*:2])N[*:1]; αMe4Pal = C[C@](N)(Cc1ccncc1)C(=O)O; αMeY = C[C@](N)(Cc1ccc(O)cc1)C(=O)O; 4Pal = N[C@@H](Cc1ccncc1)C(=O)O; αMeL = CC(C)C[C@](C)(N)C(=O)O; αMeS = C[C@](N)(CO)C(=O)O; Orn = NCCC[C@H](N)C(=O)O; AEEA = NCCOCCOCC(=O)O; Aib = CC(C)(N)C(=O)O
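Throughout, for Relative cAMP EC50, hGIPR: intracellular cAMP rise after 30 min at 37 °C read by HTRF against a standard curve, scaled between buffer alone (0%) and top control ligand concentration (100%), four-parameter fit.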
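Throughout, for Relative cAMP EC50, hGLP-1R: intracellular cAMP rise after 30 min at 37 °C read by HTRF, normalized between buffer only (0%) and maximal control ligand (100%), four-parameter variable-slope fit.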
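Throughout, for Relative cAMP EC50, hGcgR: intracellular cAMP rise after 30 min at 37 °C, read by HTRF against a cAMP standard curve, scaled from buffer only (0%) to maximal control ligand response (100%).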

T1 sequence (P43220 24-463): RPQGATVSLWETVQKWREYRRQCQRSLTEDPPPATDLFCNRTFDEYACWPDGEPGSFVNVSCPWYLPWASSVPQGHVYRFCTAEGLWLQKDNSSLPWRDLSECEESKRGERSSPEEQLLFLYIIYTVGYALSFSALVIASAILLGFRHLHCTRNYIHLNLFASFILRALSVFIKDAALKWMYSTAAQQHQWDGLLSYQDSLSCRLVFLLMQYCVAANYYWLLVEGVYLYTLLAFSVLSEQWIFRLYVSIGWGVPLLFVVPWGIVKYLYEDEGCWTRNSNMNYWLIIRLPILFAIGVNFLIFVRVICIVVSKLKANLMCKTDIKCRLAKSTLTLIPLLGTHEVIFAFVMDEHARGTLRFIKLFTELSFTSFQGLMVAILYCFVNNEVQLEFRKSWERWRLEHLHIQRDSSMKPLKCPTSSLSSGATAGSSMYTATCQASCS
Chain of human GcgR (P47871 26-477): as the sequence (P47871 26-477) above

The term EC50 denotes the concentration that produces a half-maximal response. With “H-Y[Aib]QGT[αMePhe(2-F)]TSD[4Pal]SI[αMeL]LD[Orn]K([γGlu-γGlu-C18 diacid])AQ[αMe4Pal]EFI[dE][αMeY]LQEGGPSSGEPPPSGS-NH2 [Example 649]”, the EC50 at human GcgR worked out at 669 nM; on hGLP-1R [1], 1.35 nM; on hGIPR [2] it was 0.0221 nM; on hGIPR [3], 0.76 nM; at hGLP-1R [4], 62.9 nM; on hGcgR, 21.2 nM.

In the case of “H-Y[Aib]QGT[αMePhe(2-F)]TSD[4Pal][αMeS]I[αMeL]LD[Orn]K([AEEA-γGlu-C18 diacid])AQ[αMe4Pal]EFI[dE][αMeY]LIEGGPSSGAPPPEGE-NH2 [Example 1148]”, the EC50 at human GcgR was determined as 175 nM; on hGLP-1R [1] (setting [5]) it was 0.299 nM; on hGIPR [2] (setting [5]), 0.00801 nM; on hGIPR [3], 0.873 nM; on hGLP-1R [4], 44.3 nM; at hGcgR (setting [5]), 1.6 nM.

In the case of “H-Y[Aib]QGT[αMePhe(2-F)]TSD[4Pal]SI[αMeL]LD[Orn]K([γGlu-γGlu-C18 diacid])AQ[αMe4Pal][Orn]FI[dE][αMeY]LIEGGPSSGEPPPEEG-NH2 [Example 681]”, the EC50 on human GcgR is 104 nM; on hGLP-1R [1], 0.257 nM; on hGIPR [2], 0.00663 nM; on hGIPR [3], 0.395 nM; at hGLP-1R [4], 14.2 nM; at hGcgR, 1.35 nM.

“H-Y[Aib]QGT[αMePhe(2-F)]TSDYSILLDKK([AEEA-γGlu-C18 diacid])AQ[Aib]AFIEFLEEGGPSSGAPPPSEG-NH2 [Example 412]”: the EC50 on human GcgR came out at 467 nM; at hGLP-1R [1] it was 0.282 nM; on hGIPR [2], 0.0351 nM; on hGIPR [3], 12.5 nM; on hGLP-1R [4], 46 nM; at hGcgR, 2.36 nM.

Turning to “H-Y[Aib]QGTFTSD[4Pal][αMeS]Q[αMeL]LD[Orn]K([dE-γGlu-C18 diacid])AQ[αMe4Pal]QFIE[αMeY]LIA[Aib]GPSSGAPPPSGGGE-NH2 [Example 1185]”, the EC50 at human GcgR was determined as 206 nM; on hGLP-1R [1] (setting [5]) it was 0.762 nM; on hGIPR [2] (setting [5]), 0.0266 nM; on hGIPR [3], 2.31 nM; at hGLP-1R [4], 66.1 nM; on hGcgR (setting [5]), 1.64 nM.

Take “H-Y[Aib]QGTFTSD[4Pal]SQ[αMeL]LD[Orn]K([γGlu-γGlu-C18 diacid])AQ[αMe4Pal]AFIEYLIA[Aib]GPSSGEPPPSGSEE-NH2 [Example 1092]”: the EC50 on human GcgR was 506 nM; on hGLP-1R [1] (setting [5]), 1.33 nM; at hGIPR [2] (setting [5]), 0.0648 nM; on hGIPR [3], 7.83 nM; on hGLP-1R [4] it was 230 nM; at hGcgR (setting [5]), 3.45 nM.

On to “Y[Aib]QGT[αMePhe(2-F)]TSDYSKLLDKIAQK([AEEA-γGlu-C20 diacid])AFIQYLIEGGPSSGEPPPSEG-NH2 [Example 338]”, for which the EC50 amounted to 659 nM at human GcgR; 1.22 nM on hGLP-1R [1] (setting [5]); 0.0733 nM at hGIPR [2] (setting [5]); 10.9 nM at hGIPR [3]; 172 nM at hGLP-1R [4]; 4.02 nM at hGcgR (setting [5]).

As for “H-Y[Aib]QGTFTSD[4Pal]S[Orn][αMeL]LD[Orn]K([dE-γGlu-C18 diacid])AQ[αMe4Pal]AFIEYLIAGGPSSGAPPPSGSEE-NH2 [Example 1063]”, the EC50 on human GcgR was found to be 2290 nM; on hGLP-1R [1] (setting [5]), 6.96 nM; on hGIPR [2] (setting [5]), 0.318 nM; at hGIPR [3], 26.6 nM; at hGLP-1R [4] it was 626 nM; at hGcgR (setting [5]), 10.6 nM.

For the compound `CC[C@H](C)[C@H](NC(=O)[C@H](Cc1ccccc1)NC(=O)[C@H](C)NC(=O)C(C)(C)NC(=O)[C@H](CCC(N)=O)NC(=O)[C@H](C)NC(=O)[C@H](CCCCNC(=O)CC[C@H](NC(=O)CC[C@H](NC(=O)CCCCCCCCCCCCCCCCC(=O)O)C(=O)O)C(=O)O)NC(=O)[C@H](CCCCN)NC(=O)[C@H](CC(=O)O)NC(=O)[C@H](CC(C)C)NC(=O)[C@](C)(CC(C)C)NC(=O)[C@@H](NC(=O)[C@H](CO)NC(=O)[C@H](Cc1ccncc1)NC(=O)[C@H](CC(=O)O)NC(=O)[C@H](CO)NC(=O)[C@@H](NC(=O)[C@](C)(Cc1ccccc1F)NC(=O)[C@@H](NC(=O)CNC(=O)[C@H](CCC(N)=O)NC(=O)C(C)(C)NC(=O)[C@@H](N)Cc1ccc(O)cc1)[C@@H](C)O)[C@@H](C)O)[C@@H](C)CC)C(=O)N[C@@H](CCC(=O)O)C(=O)N[C@@H](Cc1ccc(O)cc1)C(=O)N[C@@H](CC(C)C)C(=O)N[C@@H](CO)C(=O)N[C@@H](CCC(=O)O)C(=O)NCC(=O)NCC(=O)N1CCC[C@H]1C(=O)N[C@@H](CO)C(=O)N[C@@H](CO)C(=O)NCC(=O)N[C@@H](C)C(=O)N1CCC[C@H]1C(=O)N1CCC[C@H]1C(=O)N1CCC[C@H]1C(=O)N[C@@H](CO)C(N)=O` [Example 446] (H-Y[Aib]QGT[αMePhe(2-F)]TSD[4Pal]SI[αMeL]LDKK([γGlu-γGlu-C18 diacid])AQ[Aib]AFIEYLSEGGPSSGAPPPS-NH2), the concentration for a half-maximal effect (EC50) is 516 nM at human GcgR; 0.696 nM at hGLP-1R [1]; 0.0351 nM on hGIPR [2]; 3.01 nM on hGIPR [3]; 24.5 nM at hGLP-1R [4]; 8.34 nM at hGcgR.

For “H-Y[Aib]QGTFTSD[4Pal]SQ[αMeL]LDKK([AEEA-γGlu-C18 diacid])AQ[αMe4Pal]AFIE[αMe4Pal]LIEGGPSSGAPPPSGSEE-NH2 [Example 954]”, the EC50 at human GcgR was 450 nM; on hGLP-1R [1] (setting [5]) it was 4.79 nM; at hGIPR [2] (setting [5]), 0.268 nM; at hGIPR [3], 35.3 nM; on hGLP-1R [4] it was 357 nM; on hGcgR (setting [5]), 3.66 nM.

As for “H-Y[Aib]QGTFTSD[4Pal]S[Orn][αMeL]LDKK([AEEA-γGlu-C18 diacid])AQ[Aib]AFIEYLLE[dA]GPSS[Aib]APPPSGT-NH2 [Example 275]”, the EC50 turned out to be 882 nM at human GcgR; 4.93 nM on hGLP-1R [1] (setting [5]); 0.318 nM at hGIPR [2] (setting [5]); 27.7 nM on hGIPR [3]; 692 nM on hGLP-1R [4]; 7.8 nM on hGcgR (setting [5]).

For the compound `CC[C@H](C)[C@H](NC(=O)[C@H](CC(C)C)NC(=O)[C@](C)(Cc1ccc(O)cc1)NC(=O)[C@@H](CCC(=O)O)NC(=O)[C@@H](NC(=O)[C@H](Cc1ccccc1)NC(=O)[C@H](CCC(=O)O)NC(=O)C(C)(C)NC(=O)[C@H](C)NC(=O)[C@H](C)NC(=O)[C@H](CCCCNC(=O)COCCOCCNC(=O)CC[C@H](NC(=O)CCCCCCCCCCCCCCCCC(=O)O)C(=O)O)NC(=O)[C@H](CCCN)NC(=O)[C@H](CC(=O)O)NC(=O)[C@H](CC(C)C)NC(=O)[C@](C)(CC(C)C)NC(=O)[C@@H](NC(=O)[C@](C)(CO)NC(=O)[C@H](Cc1ccncc1)NC(=O)[C@H](CC(=O)O)NC(=O)[C@H](CO)NC(=O)[C@@H](NC(=O)[C@](C)(Cc1ccccc1F)NC(=O)[C@@H](NC(=O)CNC(=O)[C@H](CCC(N)=O)NC(=O)C(C)(C)NC(=O)[C@@H](N)Cc1ccc(O)cc1)[C@@H](C)O)[C@@H](C)O)[C@@H](C)CC)[C@@H](C)CC)C(=O)N[C@@H](CCC(=O)O)C(=O)NCC(=O)NCC(=O)N1CCC[C@H]1C(=O)N[C@@H](CO)C(=O)N[C@@H](CO)C(=O)NCC(=O)N[C@@H](C)C(=O)N1CCC[C@H]1C(=O)N1CCC[C@H]1C(=O)N1CCC[C@H]1C(=O)N[C@@H](CO)C(=O)NCC(=O)N[C@H](C(=O)NCC(=O)N[C@H](CCC(=O)O)C(N)=O)[C@@H](C)O` [Example 723], the EC50 at human GcgR amounted to 179 nM; at hGLP-1R [1], 0.255 nM; on hGIPR [2], 0.0118 nM; at hGIPR [3] it was 1.02 nM; at hGLP-1R [4], 26.5 nM; on hGcgR, 1.82 nM.

Regarding “H-Y[Aib]QGTFTSDFS[Orn][αMeL]LDKK([AEEA-γGlu-C20 diacid])AQ[Aib]AFIEYLLAGGPSSGEPPPSGS-NH2 [Example 92]”, the EC50 on human GcgR came to 2540 nM; at hGLP-1R [1] (setting [5]), 2.08 nM; on hGIPR [2] (setting [5]), 0.212 nM; at hGIPR [3], 62 nM; on hGLP-1R [4] it was 735 nM; on hGcgR (setting [5]), 12 nM.

These data come from patent US20240270821A1, “GIP/GLP1/GCG TRI-RECEPTOR AGONISTS AND USES THEREOF” (priority 2023, published 2024).
